Usually inhibition stands for the change of the read-out against control, counted positive when it falls. For orientation: pIC50 means −log10 of the IC50, conventionally taken in molar units.

pIC50: −log10 of the molar value.

One experiment has as its system VEGF induced increases in intracellular calcium levels in HUVEC (human umbilical vein endothelial cells). Description: VEGF Stimulated Ca++ Signal in vitro (FLIPR). Type of experiment: cell-based. Conditions: 10 μM, VEGF 5 ng/mL. The procedure:
VEGF Stimulated Ca^++ Signal in vitro
Automated FLIPR (Fluorometric Imaging Plate Reader) technology was used to screen for inhibitors of VEGF induced increases in intracellular calcium levels in fluorescent dye loaded endothelial cells. HUVEC (human umbilical vein endothelial cells) (Clonetics) were seeded in 96-well fibronectin coated black-walled plates overnight at 37° C./5%CO2. Cells were loaded with calcium indicator Fluo-4 for 45 minutes at 37° C. Cells were washed 4 times (Original Cell Wash, Labsystems) to remove extracellular dye. Test compounds were reconstituted in 100% DMSO and added to the cells to give a final DMSO concentration of 0.1%. For screening, cells were pre-incubated with test agents for 30 minutes, at a single concentration (10 μM) or at concentrations ranging from 0.01 to 10.0 μM followed by VEGF stimulation (5 ng/mL). Changes in fluorescence at 516 nm were measured simultaneously in all 96 wells using a cooled CCD camera. Data were generated by determining max-min fluorescence levels for unstimulated, stimulated, and drug treated samples. IC50 values for test compounds were calculated from % inhibition of VEGF stimulated responses in the absence of inhibitor.
As to “5-Chloro-3-[(phenylamino)-methylene]-1,3-dihydro-indol-2-one benzothiazol-6-yl-amine [Example 101]”, the “VEGF Stimulated Ca^++ signal assay % inhibition @ 10 μM” value came out at 22.00%. On the same count and under the same terms, for “3-[(Methyl-trifluoromethyl-phenylamino)-methylene]-1,3-dihydro-indol-2-one [Example 56]” the value was 21.00%.

Staying with this experiment, now noted: Homo sapiens, 10 μM, VEGF 5 ng/mL.
As to `Cc1cccc2c1C(=CNc1ccc(C(C)(C)C)cc1)C(=O)N2` [Example 98, 3-[(4-tert-Butyl-phenylamino)-methylene]-4-methyl-1,3-dihydro-indol-2-one], the inhibition at 10 µM was 47.5%. Same read-out and setting: the figure for `Cc1cc(C)cc(NC=C2C(=O)Nc3ccccc32)c1` [Example 19, 3-[(3,5-Dimethyl-phenylamino)-methylene]-1,3-dihydro-indol-2-one] is 14%. The same measure, in the same setting: for `O=C1Nc2ccc(Cl)cc2C1=CNc1ccc(OC(F)F)cc1` [Example 64, 3-[(4-Difluoromethoxyphenylamino)-methylene]-5-chloro-1,3-dihydro-indol-2-one] the value was 37%; for `O=C1Nc2ccccc2C1=CNc1ccc(OC(F)(F)F)cc1` [Example 51, 3-[(4-Trifluoromethoxy-phenylamino)-methylene]-1,3-dihydro-indol-2-one], 45.5%; for `N#CCc1ccc(NC=C2C(=O)Nc3ccccc32)cc1` [Example 30, 3-[(4-Cyanomethylphenylamino)-methylene]-1,3-dihydro-indol-2-one], 39.5%.

Turning to `O=C1Nc2ccc(Cl)cc2C1=CNc1ccc(O)cc1` [Example 77, 3-[(4-Hydroxyphenylamino)-methylene]-5-chloro-1,3-dihydro-indol-2-one], the inhibition at 10 µM is 35%. On the same count and under the same terms, the figure for `Cc1ccc(NC=C2C(=O)Nc3ccc(Cl)cc32)cc1C` [Example 69, 3-[(3,4-Dimethylphenylamino)-methylene]-5-chloro-1,3-dihydro-indol-2-one] is -10.7%; for `Cc1cc(F)c(NC=C2C(=O)Nc3ccccc32)cc1OC(=O)OCC(C)(C)C` [Example 27, Carbonic acid 2,2-dimethyl-propyl ester 4-fluoro-2-methyl-5-[(2-oxo-1,2-dihydro-indol-3-ylidenemethyl)-amino]-phenyl ester] it is -9%.

For the compound `Cc1cccc2c1C(=CNc1ccc(OC(F)(F)F)cc1)C(=O)N2` [Example 120, 4-Methyl-3-[(4-trifluoromethoxy-phenylamino)-methylene]-1,3-dihydro-indol-2-one], the inhibition at 10 µM was determined as 12.7%. Still for that read-out and setting: the figure for `O=C1Nc2ccccc2C1=CNc1ccc(C(=O)O)cc1` [Example 86, 4-[(2-Oxo-1,2-dihydro-indol-3-ylidenemethyl)-amino]-benzoic acid] is 48.5%; for `Cc1cc(NC=C2C(=O)Nc3ccccc32)ccc1Cl` [Example 54, 3-[(4-Chloro-3-methyl-phenylamino)-methylene]-1,3-dihydro-indol-2-one] it is 40.5%.

As to `Cc1cc(NC=C2C(=O)Nc3ccc(Cl)cc32)ccc1O` [Example 67, 3-[(3-Methyl-4-hydroxyphenylamino)-methylene]-5-chloro-1,3-dihydro-indol-2-one], the inhibition at 10 µM stood at 19%.

The same experiment, now with this note: Homo sapiens, 0.01 to 10.0 μM, VEGF 5 ng/mL.
In the case of `CN1CCN(CCCNc2ccc(NC=C3C(=O)Nc4ccccc43)cc2)CC1` [Example 302, 3-({4-[3-(4-Methyl-piperazin-1-yl)-propylamino]-phenylamino}-methylene)-1,3-dihydro-indol-2-one], the pIC50 is 6.15. On the same count and under the same terms, the figure for `CN1CCN(CCCNc2ccc(NC=C3C(=O)Nc4cc(F)ccc43)cc2)CC1` [Example 304, 6-Fluoro-3-({4-[3-(4-methyl-piperazin-1-yl)-propylamino]-phenylamino}-methylene)-1,3-dihydro-indol-2-one] is 6.92; for `O=C1Nc2ccc(F)cc2C1=CNc1ccc(CCCCN2CCOCC2)cc1` [Example 316, 5-Fluoro-3-{[4-(4-morpholin-4-yl-butyl)-phenylamino]-methylene}-1,3-dihydro-indol-2-one] it is 6.23.
